“Also recorded” adds a separate entry of the source.
What was measured:
neurons seeded in chip = assay type: cell-based, human
[1] = system: SC-Chip neurons (lines 83GFP and 00iCTR); assay type: cell-based, human
[2] = system: blood brain barrier (BBB) on-chip; assay type: in vitro ADME, human; conditions: FIG. 46A, % Dextran (fluorescence)
Method: (§1) In some embodiments, methods for seeding cells on-chip are provided, as follows for one example: Day—1: Activate and Coat Chips, Day 0: Seed HBMECs, Astrocytes and Pericytes.; Day 1: Initiate flow of media @60 μl/hr. Bottom channel only or Top and bottom channels.; Day 2: Initiate permeability assay: Dextran+ Serum proteins+ Compounds of interest.; Day 3: End permeability assay. Collect media and freeze.; Day 4: Test permeability modulators/experimental stimuli Day 5: Repeat permeability assay.; Day 6: End permeability assay—Collect media and freeze. Fix or lyse chips.

iBMEC barrier function = test: TEER measurement on prototype TEER chips under flow; assay type: cell-based, human; conditions: FIG. 14A, chips under flow then exposed to TNFa
Method: Cells were plated on tall channel PDMS chips equipped with incorporated gold electrodes on each channel (see FIG. 13A). Post seeding of BMECs, transendothelial electrical resistance was measured by connecting the electrodes to an EVOM2 voltohmmeter (see FIG. 13B). […] The “damaged” chip was a failure due to the TEER-Chips being a prototype.
Higher TEER values generally indicate a tighter barrier, which is typically desirable for a blood-brain barrier.

[3] = system: BMECs seeded on a microfluidic device; test: Paracellular permeability assay with Dextran-FITC on chip; assay type: cell-based, human; conditions: FIG. 14B, TNFa exposure
Method: Albumin or Dextran conjugated to a fluorescent probe (e.g., FITC or TRITC) are frequently used to monitor changes in leakage, and thus barrier function. In this case, Dextran-FITC, a green fluorescent molecule of 4 KDa, or sodium fluorescein (a 0.3 KDa molecule), was added to the bottom (“blood side”) channel. Paracellular permeability was calculated by measuring the permeability of the fluorescent molecule on the Top (“brain side”) channel. […] FIG. 14B involves TNF-alpha exposure, but the readout is membrane permeability as measured by Dextran-FITC.

[4] = system: blood brain barrier (BBB) on-chip, iPS-derived brain endothelial cells; test: Barrier function test with human serum proteins (ELISA); assay type: in vitro ADME; conditions: FIG. 47, ELISA
Method: as §1

With `NC1=N[C@H](O)[C@H]2[C@H]3O[C@]4(O)O[C@@H]([C@@H](O)[C@@]2(N1)[C@@H]4O)[C@]3(O)CO` [tetrodotoxin] the “effect on calcium flux (neuronal) activity” value (neurons seeded in chip) was “ablates this activity” and the “neuron activity (calcium transients)” value [1] was “completely ablated”.
Dextran was tested, and the “diffusion from Vascular Channel to Neuronal Channel” value [2] was “low diffusion”.
In the case of TNFa, the “iBMEC barrier function (TEER) after exposure” value (iBMEC barrier function) is reported as “weakening of barrier function; also recorded: decrease in barrier function and TEER” and the “permeability through the semi-porous membrane by dextran-FITC after exposure” value [3] is reported as “increase in permeability”.
With “transferrin: human transferrin measured by ELISA” the “diffusion / level in neuronal channel, from Vascular Channel to Neuronal Channel” value [4] was “High levels”.

From patent US12091650B2, “Development of spinal cord on a microfluidic chip” (EMULATE, INC., priority 2016, dated 2024)
